From patent US8309766B2 (Obschestvo S. Organichennoi Otvetstvennostiyu …, priority 2005, dated 2012)
Where two headings read alike, the source gives them in different places.

Tests used:
[1] = system: "acetic contortions" in mice; test: Analgetic activity on the model "acetic contortions"; type: in vivo, white mongrel mice; conditions: dose 10 mg/kg (table title); for inhibition in vivo at 10 mg/kg / response vs control in vivo at 10 mg/kg: Mus musculus, ip, 0.25 h; for inhibition in vivo at 10 mg/kg: read-out: Analgetic effect (%); for response vs control in vivo at 10 mg/kg: read-out: C, % to the control; for C ± m (the number of contortions for 15 minutes): 60 minutes prior to acetic acid
Description: (§1) The tests were conducted on males of white mongrel mice weighing 22-24 grams. The specific pain response (“contortions”) were elicited by intraperitoneal administration to mice of 0.75% acetic acid solution. The following signs were taken into consideration: the number of seizure contractions of abdominal muscles accompanied by stretching the hind limbs and sagging the back. Analgetic effect was assessed by decrease in the number of contortions in animals in percent to the control for 15 minutes post administration of acetic acid. The technique of the tests is disclosed in Koster R., Anderson M., de Beer B.//Fed. Proc. 1959. V. 18. P. 412. Compounds under testing were administered intraperitoneally (using a probe) at a dose 10 μg/kg 60 minutes prior to injection of the acid. Diclofenac (10 mg/kg) was used as a reference drug. Analgetic effect was calculated according to the formula: […]
wherein Ck is the number of contortions in the control group,
Co is the number of contortions in the test group.

cyclooxygenase = test: In vitro effect on [14C]arachidonic acid metabolism in a cell-free homogenate of murine pulmonary tissue; type: biochemical, CBA mice; conditions: compound 10^−4 M; for Prostanoids / AA (arachidonic acid) / 6-keto-PGF1α / PGE2 / PGF2α / TXB2: 37° C., 30 minutes; for Prostanoids: b308 reads these as % cyclooxygenase inhibition; for AA (arachidonic acid) / 6-keto-PGF1α / PGE2 / PGF2α / TXB2: change; for 6-keto-PGF1α / PGF2α: first of only four cells in the row; for TXB2 / PGE2: second of only four cells in the row
Description: Studies of arachidonic acid metabolism was carried out on females CBA mice who where fed a standard vivarium fodder. Animals (mice) were sacrificed, lungs were extracted, homogenized in a glass homogenizer manufactured by the firm “Wheaton” (USA) at 4° C. in 10 volumes of 0.05 M Tris-HCl buffer. Aliquots (0.5 ml) of supernatant were incubated in 0.5 μCi [1-C^14]-arachidonic acid [C^14]-AA, “Amersham”, England; specific activity 50-60 μCi/mmole) at 37° C. for 30 minutes. Non-metabolized [αC^14]-AA and products of metabolism thereof were extracted in 20 volumes of chloroform and methanol mixture (1:1) in extraction efficacy not less than 90% assessed using [C^14]-PGF2α. [C^14]-AA and metabolites thereof were separated and identified using TLC (the plates Kieselgel 60 of the “Merck” firm, Germany) using as an organic phase, the system of solvents (ethylacetate, isooctane, acetic acid, water—110:50:20:100) and labeled standards. Densitometry of autoradiochromograms obtained on the X-ray film X-Omat AR (“Kodak”, USA) and HS 11 (“ORWO”, Germany), was performed on the densiscan KS 3 (“Kipp and Zonnen”, Holland). Quantitative analysis of individual eicosanoids was carried out using radiometry of fractions obtained by high-performance liquid chromatography (the HPLC-system of the “Gilson” form, France; the column ZORBAX C8 of the “Du Pont” firm, USA) and by elution of spots on TLC-plates. The tested compounds were administered at concentration 10^−4 M.

"hot plate" test in mice = test: Analgetic activity on the model "hot plate"; type: in vivo, white mongrel mice; conditions: for response vs control in vivo at 10 mg/kg / change in vivo at 10 mg/kg: Mus musculus; for response vs control in vivo at 10 mg/kg: read-out: Latent time of NT (%); for change in vivo at 10 mg/kg: read-out: Analgesia (%)
Description: The tests were conducted on males of white mongrel mice weighing 22-24 grams. The animals were individually placed on a hot plate (manufactured by the firm “Ugo Basile”), a temperature of which remained constant and was equal to 55° C. The following first manifestations of pain reaction were recorded: licking paws, jumping up prior to administration of a substance (background parameters) and 0.5, 1, 2, 3 and 4 hours post administration of a substance. Substances were administered […] (using a probe). A weighed amount of a substance was thoroughly mixed in 0.1 ml Tween 80 until a solution was obtained, then normal saline was added up to a volume of 0.5 ml. Average latent time of nociception threshold (NT) was calculated in every group. The results obtained were expressed in percent of the background values. Analgetic effect (in %) was calculated according to the formula: A−100%=X, wherein A is a background parameter; X is analgetic effect (in %)
A is (time 0.5 to 4 hours post administration×100%): background time
As reference drugs, Analgin (150 mg/kg), Paracetamol (200 mg/kg), Ketorol (10 mg/kg), were used.

[2] = system: "acetic contortions" in mice; test: Effect on analgetic action of Tramal and Analgin on the model "acetic contortions"; type: in vivo, white mongrel mice
Description: as §1
The studies were carried out in accordance with the technique presented in Example 18.

mice, forced swimming = test: "Behavioral despair" test according to Porsolt; type: in vivo; conditions: 50 mg/kg orally
Description: The “behavioral despair” test according to Porsolt [R. D. Porsolt, A. Bertin and M. Jalfre.//in mice: A primary Screening Test for Antidepressants. Arch. Int. Pharmacodyn., 1977, 229, p. 327-336] is a predictive test for drugs with antidepressant action.
Stress state in mice (weighing 27-30 grams) is induced by forced swimming. Animals are placed into a cylinder (height 25 cm, diameter 10 cm) filled to ⅓ with water at temperature 21-23° C. The animals cannot escape from the cylinder by themselves. Following a short time of activity the animals develop a so called “behavioral depression” characterized by hovering of animals, immobilization duration of which can be fixed. The experiment is carried out in two days. One a first day, animals are placed into the cylinder for 15 minutes (pre-test). After removal from water, the animals are dried and preparations under testing are administered. At 24 hours, the preparations are administered again and one hour later the animals are placed into the cylinder for 6 minutes. During first two minutes the animals are actively swimming; during the subsequent four minutes, behavioral depression develops manifested by immobilization (hovering) which is fixed for 4 minutes and is measure in seconds. Compound IX and the reference antidepressant drug Fluoxetin were administered orally at a dose 50 mg/kg.

[3] = 10 mg/kg, 60 minutes post administration
[4] = 10 mg/kg, 120 minutes post administration
[5] = 1 h, 10 mg/kg, 60 minutes, percent of background
[6] = 2 h, 10 mg/kg, 120 minutes, percent of background
[7] = 10 mg/kg, 30 minutes post administration
[8] = 10 mg/kg, 240 minutes post administration
[9] = 0.5 h, 10 mg/kg, 30 minutes, percent of background

SMILES | inhibition in vivo at 10 mg/kg [1] [%] | response vs control in vivo at 10 mg/kg [1] [%] | C ± m (the number of contortions for 15 minutes) [1] | Prostanoids (cyclooxygenase) | AA (arachidonic acid) (cyclooxygenase) | latent time of nociception threshold, M ± m ("hot plate" test in mice; [3]) [s] | latent time of nociception threshold, M ± m ("hot plate" test in mice; [4]) [s] | response vs control in vivo at 10 mg/kg ("hot plate" test in mice; [5]) [%] | change in vivo at 10 mg/kg ("hot plate" test in mice; 1 h, 10 mg/kg, 60 minutes) [%] | response vs control in vivo at 10 mg/kg ("hot plate" test in mice; [6]) [%] | change in vivo at 10 mg/kg ("hot plate" test in mice; 2 h, 10 mg/kg, 120 minutes) [%] | latent time of nociception threshold, M ± m ("hot plate" test in mice; [7]) [s] | response vs control in vivo at 10 mg/kg ("hot plate" test in mice; [9]) [%] | change in vivo at 10 mg/kg ("hot plate" test in mice; 0.5 h, 10 mg/kg, 30 minutes) [%] | other results
O=C(Cc1ccc(O)cc1)NCCc1ccccc1 | 56.5 | 43.5 | 16.0 ± 4.5 | −40 | +40 | 8.5 ± 0.27 | 6.5 ± 1.16 | 160 | 59.6 | 123 | 23.3 |  |  |  | 6-keto-PGF1α / PGF2α (cyclooxygenase): −45; TXB2 / PGE2 (cyclooxygenase): −33
O=C(CCc1ccc(O)cc1)N[C@@H](Cc1ccc(O)cc1)C(=O)O [Compound XIV, 3-(p-hydroxyphenyl)-propionyltyrosine] |  |  |  | −35 | +84 | 4.7 ± 0.51 | 7.3 ± 1.09 | 126 | 26.3 | 196 | 96.2 | 5.59 ± 1.12 | 150 | 50.3 | 6-keto-PGF1α (cyclooxygenase): −24; PGE2 (cyclooxygenase): −54; PGF2α (cyclooxygenase): −24; TXB2 (cyclooxygenase): −49; latent time of nociception threshold, M ± m ("hot plate" test in mice; [8]): 6.78 ± 0.504 s; response vs control in vivo at 10 mg/kg ("hot plate" test in mice; 4 h, 10 mg/kg, 240 minutes, percent of background): 182%; change in vivo at 10 mg/kg ("hot plate" test in mice; 4 h, 10 mg/kg, 240 minutes): 82.3%
O=C(CCc1ccccc1)NCCc1ccc(O)cc1 [Compound XII, 3-phenylpropionyltyramine] | 41.4 | 58.6 | 20.1 ± 2.1 | −44 | +42 |  |  |  |  |  |  |  |  |  | 6-keto-PGF1α / PGF2α (cyclooxygenase): −42; TXB2 / PGE2 (cyclooxygenase): −47
COc1cccc(C2(O)CCCCC2CN(C)C)c1 (stereo not drawn) [Tramal, reference compound] |  |  |  |  |  |  |  |  |  |  |  |  |  |  | Analgetic effect, % ([2]; IX 10 mg/kg, Tramal 10 mg/kg, alone or combined): 53%
O=C(CCc1ccc(O)cc1)NCCc1ccc(O)cc1 [Compound X, 3-(p-hydroxyphenyl)-propionyltyramine] | 54 | 46 | 11.0 ± 2.4 | −22 | +27 | 5.75 ± 0.83 | 8.50 ± 1.03 |  |  |  |  | 7.54 ± 0.78 |  |  | 6-keto-PGF1α (cyclooxygenase): −9; PGE2 (cyclooxygenase): −38; PGF2α (cyclooxygenase): −15; TXB2 (cyclooxygenase): −42; Analgesia (%) ("hot plate" test in mice; 10 mg/kg, 30 minutes): 75.3%; Latent time of NT (%) ("hot plate" test in mice; 10 mg/kg, 30 minutes, percent of background): 175.3%; Analgesia (%) ("hot plate" test in mice; 10 mg/kg, 60 minutes): 33.8%; Latent time of NT (%) ("hot plate" test in mice; 10 mg/kg, 60 minutes, percent of background): 133.7%; Analgesia (%) ("hot plate" test in mice; 10 mg/kg, 120 minutes): 97.7%; Latent time of NT (%) ("hot plate" test in mice; 10 mg/kg, 120 minutes, percent of background): 197.7%; Analgesia (%) ("hot plate" test in mice; 10 mg/kg, 240 minutes): 100.6%; latent time of nociception threshold, M ± m ("hot plate" test in mice; [8]): 8.84 ± 0.925 s; Latent time of NT (%) ("hot plate" test in mice; 10 mg/kg, 240 minutes, percent of background): 200.6%
Cc1c(N(C)CS(=O)(=O)[O-])c(=O)n(-c2ccccc2)n1C.[Na+] [Analgin, reference compound] |  |  |  |  |  |  |  |  |  |  |  |  |  |  | Analgetic effect, % ([2]; Analgin 50 mg/kg alone): 37.5%; Number of contortions for 15 minutes, M ± m ([2]; Analgin 50 mg/kg alone): 20.7 ± 2.3; Analgesia (%) ("hot plate" test in mice; Analgin 150 mg/kg, 30 minutes): 53.4%; Latent time of NT (%) ("hot plate" test in mice; Analgin 150 mg/kg, 30 minutes): 153.4%; latent time of nociception threshold, M ± m ("hot plate" test in mice; Analgin 150 mg/kg, 30 minutes): 7.44 ± 1.22 s; Analgesia (%) ("hot plate" test in mice; Analgin 150 mg/kg, 60 minutes): 50.3%; Latent time of NT (%) ("hot plate" test in mice; Analgin 150 mg/kg, 60 minutes): 150.3%; latent time of nociception threshold, M ± m ("hot plate" test in mice; Analgin 150 mg/kg, 60 minutes): 7.29 ± 0.71 s; Analgesia (%) ("hot plate" test in mice; Analgin 150 mg/kg, 120 minutes): 28.9%; Latent time of NT (%) ("hot plate" test in mice; Analgin 150 mg/kg, 120 minutes): 128.9%; latent time of nociception threshold, M ± m ("hot plate" test in mice; Analgin 150 mg/kg, 120 minutes): 6.25 ± 0.75 s; Analgesia (%) ("hot plate" test in mice; Analgin 150 mg/kg, 240 minutes): 10.3%; Latent time of NT (%) ("hot plate" test in mice; Analgin 150 mg/kg, 240 minutes): 110.3%; latent time of nociception threshold, M ± m ("hot plate" test in mice; Analgin 150 mg/kg, 240 minutes): 5.35 ± 0.38 s
O=C(Cc1ccc(O)cc1)NC(Cc1ccc(O)cc1)C(=O)O (stereo not drawn) [Compound II, p-hydroxyphenylacetyltyrosine] | 24.8 | 75.2 | 24.2 ± 1.9 |  |  | 6.1 ± 0.8 | 7.3 ± 0.6 | 179 | 79.4 | 215 | 115 | 6.0 ± 0.6 | 176 | 76.5 | 
O=C(Cc1ccccc1)NCCc1ccc(O)cc1 [Compound VI, phenylacetyltyramine] | 25.5 | 74.5 | 21.1 ± 1.8 |  |  | 8.3 ± 1.0 | 6.8 ± 0.5 | 141 | 40.7 | 115 | 15.3 | 7.8 ± 0.8 | 132 | 32.2 | 
CNCCC(Oc1ccc(C(F)(F)F)cc1)c1ccccc1 (stereo not drawn) [Fluoxetin, reference compound] |  |  |  |  |  |  |  |  |  |  |  |  |  |  | % change from the control (mice, forced swimming): −33%
